Data taken from the supplement of paper PMC10307832.

Columns and labels:
Experiment in all cases: relative viability (nuclei count vs DMSO), 5 days (fraction); higher = more cells survive
[1] = system: NCI-H2228
Outline: (§1)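 Lung cancer cell lines in 1536-well plates were dosed by pin tool the day after seeding, either with one drug alone or with a fixed anchor-drug dose plus five library-drug doses (not always all listed) in √10 steps. After 5 days, cells were fixed and their nuclei stained in one step (final 0.05% Triton X-100, 1% formaldehyde, 1 ug/ml Hoechst), then counted on 4× images. Relative viability is the nuclei count in treated wells divided by that in vehicle wells. Values are medians of duplicate plates.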

[2] = system: NCI-H647
Outline: as §1

[3] = system: BEN
Outline: as §1

[4] = system: NCI-H727
Outline: as §1

[5] = system: NCI-H1650
Outline: as §1

[6] = system: NCI-H1792
Outline: as §1

[7] = system: NCI-H2405
Outline: as §1

[8] = system: LXF-289
Outline: as §1

[9] = system: HCC-827
Outline: as §1

[10] = system: NCI-H3122
Outline: as §1

[11] = system: CAL-12T
Outline: as §1

[12] = system: NCI-H322M
Outline: as §1

[13] = system: LCLC-103H
Outline: as §1

[14] = system: SK-LU-1
Outline: as §1

[15] = system: RERF-LC-KJ
Outline: as §1

[16] = system: LCLC-97TM1
Outline: as §1

[17] = system: NCI-H2087
Outline: as §1

[18] = system: 201T
Outline: as §1

[19] = system: NCI-H1437
Outline: as §1

## Nc1ccn([C@@H]2O[C@H](CO)[C@@H](O)[C@@H]2O)c(=O)n1 [Cytarabine] + CC(C)C[C@H](NC(=O)[C@H](Cc1ccccc1)NC(=O)c1cnccn1)B(O)O [Bortezomib] (partner 0.002 µM)
[1]; first compound 0.005 µM
  relative viability: 0.791
[1]; first compound 0.01581 µM
  relative viability: 0.441
[1]; first compound 0.05 µM
  relative viability: 0.437
[1]; first compound 0.1581 µM
  relative viability: 0.197
[1]; first compound 0.5 µM
  relative viability: 0.156
[2]; first compound 0.005 µM
  relative viability: 0.695
[2]; first compound 0.01581 µM
  relative viability: 0.423
[2]; first compound 0.05 µM
  relative viability: 0.513
[2]; first compound 0.1581 µM
  relative viability: 0.113
[2]; first compound 0.5 µM
  relative viability: 0.081
[3]; first compound 0.005 µM
  relative viability: 0.667
[3]; first compound 0.01581 µM
  relative viability: 0.742
[3]; first compound 0.05 µM
  relative viability: 0.413
[3]; first compound 0.1581 µM
  relative viability: 0.282
[3]; first compound 0.5 µM
  relative viability: 0.233
[4]; first compound 0.005 µM
  relative viability: 0.524
[4]; first compound 0.01581 µM
  relative viability: 0.558
[4]; first compound 0.05 µM
  relative viability: 0.484
[4]; first compound 0.1581 µM
  relative viability: 0.334
[4]; first compound 0.5 µM
  relative viability: 0.315
[5]; first compound 0.005 µM
  relative viability: 0.215
[5]; first compound 0.01581 µM
  relative viability: 0.166
[5]; first compound 0.05 µM
  relative viability: 0.172
[5]; first compound 0.1581 µM
  relative viability: 0.161
[5]; first compound 0.5 µM
  relative viability: 0.154
[6]; first compound 0.005 µM
  relative viability: 0.925
[6]; first compound 0.01581 µM
  relative viability: 0.93
[6]; first compound 0.05 µM
  relative viability: 0.795
[6]; first compound 0.1581 µM
  relative viability: 0.565
[6]; first compound 0.5 µM
  relative viability: 0.55
[7]; first compound 0.005 µM
  relative viability: 0.911
[7]; first compound 0.01581 µM
  relative viability: 0.694
[7]; first compound 0.05 µM
  relative viability: 0.662
[7]; first compound 0.1581 µM
  relative viability: 0.943
[7]; first compound 0.5 µM
  relative viability: 1.03
[8]; first compound 0.005 µM
  relative viability: 0.887
[8]; first compound 0.01581 µM
  relative viability: 0.936
[8]; first compound 0.05 µM
  relative viability: 0.901
[8]; first compound 0.1581 µM
  relative viability: 0.474
[8]; first compound 0.5 µM
  relative viability: 0.258
[9]; first compound 0.005 µM
  relative viability: 0.996
[9]; first compound 0.01581 µM
  relative viability: 0.674
[9]; first compound 0.05 µM
  relative viability: 0.474
[9]; first compound 0.1581 µM
  relative viability: 0.459
[9]; first compound 0.5 µM
  relative viability: 0.329
[10]; first compound 0.005 µM
  relative viability: 0.932
[10]; first compound 0.01581 µM
  relative viability: 0.96
[10]; first compound 0.05 µM
  relative viability: 0.856
[10]; first compound 0.1581 µM
  relative viability: 0.676
[10]; first compound 0.5 µM
  relative viability: 0.614
[11]; first compound 0.005 µM
  relative viability: 0.933
[11]; first compound 0.01581 µM
  relative viability: 0.715
[11]; first compound 0.05 µM
  relative viability: 0.948
[11]; first compound 0.1581 µM
  relative viability: 0.379
[11]; first compound 0.5 µM
  relative viability: 0.267
[12]; first compound 0.005 µM
  relative viability: 0.718
[12]; first compound 0.01581 µM
  relative viability: 1.01
[12]; first compound 0.05 µM
  relative viability: 0.717
[12]; first compound 0.1581 µM
  relative viability: 0.472
[12]; first compound 0.5 µM
  relative viability: 0.404
[13]; first compound 0.005 µM
  relative viability: 0.977
[13]; first compound 0.01581 µM
  relative viability: 1.17
[13]; first compound 0.05 µM
  relative viability: 0.958
[13]; first compound 0.1581 µM
  relative viability: 1.04
[13]; first compound 0.5 µM
  relative viability: 0.966
[14]; first compound 0.005 µM
  relative viability: 0.818
[14]; first compound 0.01581 µM
  relative viability: 0.69
[14]; first compound 0.05 µM
  relative viability: 0.558
[14]; first compound 0.1581 µM
  relative viability: 0.393
[14]; first compound 0.5 µM
  relative viability: 0.296
[15]; first compound 0.005 µM
  relative viability: 1.01
[15]; first compound 0.01581 µM
  relative viability: 0.91
[15]; first compound 0.05 µM
  relative viability: 0.974
[15]; first compound 0.1581 µM
  relative viability: 0.68
[15]; first compound 0.5 µM
  relative viability: 0.472
[16]; first compound 0.005 µM
  relative viability: 0.277
[16]; first compound 0.01581 µM
  relative viability: 0.349
[16]; first compound 0.05 µM
  relative viability: 0.132
[16]; first compound 0.1581 µM
  relative viability: 0.084
[16]; first compound 0.5 µM
  relative viability: 0.0888
[17]; first compound 0.005 µM
  relative viability: 0.631
[17]; first compound 0.01581 µM
  relative viability: 1.01
[17]; first compound 0.05 µM
  relative viability: 0.84
[17]; first compound 0.1581 µM
  relative viability: 0.573
[17]; first compound 0.5 µM
  relative viability: 0.338
[18]; first compound 0.005 µM
  relative viability: 1.07
[18]; first compound 0.01581 µM
  relative viability: 1.11
[18]; first compound 0.05 µM
  relative viability: 0.866
[18]; first compound 0.1581 µM
  relative viability: 1.01
[18]; first compound 0.5 µM
  relative viability: 1
[19]; first compound 0.005 µM
  relative viability: 0.334
[19]; first compound 0.01581 µM
  relative viability: 0.287
[19]; first compound 0.05 µM
  relative viability: 0.243
[19]; first compound 0.1581 µM
  relative viability: 0.18
[19]; first compound 0.5 µM
  relative viability: 0.16
